This is an account of results in patent US7910556B2, “PAR-2 agonist” (Kowa Company, Ltd., priority 2004, dated 2011).

T1: PAR-2 (Homo sapiens, UniProt P55085)
T1 sequence (P55085 26-397): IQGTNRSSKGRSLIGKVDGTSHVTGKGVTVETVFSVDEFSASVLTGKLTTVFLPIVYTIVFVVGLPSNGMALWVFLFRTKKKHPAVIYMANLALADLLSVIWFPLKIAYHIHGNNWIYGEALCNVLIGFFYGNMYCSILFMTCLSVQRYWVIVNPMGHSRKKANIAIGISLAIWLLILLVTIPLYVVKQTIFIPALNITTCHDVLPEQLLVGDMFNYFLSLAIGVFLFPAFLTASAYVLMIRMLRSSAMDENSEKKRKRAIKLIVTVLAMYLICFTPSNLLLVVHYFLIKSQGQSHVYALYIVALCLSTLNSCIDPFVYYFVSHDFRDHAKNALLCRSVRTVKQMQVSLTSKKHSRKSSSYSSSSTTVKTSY

T2: human PAR-2 (Protease-activated receptor-2) (human, UniProt P55085 37-397)
T2 sequence (looked up): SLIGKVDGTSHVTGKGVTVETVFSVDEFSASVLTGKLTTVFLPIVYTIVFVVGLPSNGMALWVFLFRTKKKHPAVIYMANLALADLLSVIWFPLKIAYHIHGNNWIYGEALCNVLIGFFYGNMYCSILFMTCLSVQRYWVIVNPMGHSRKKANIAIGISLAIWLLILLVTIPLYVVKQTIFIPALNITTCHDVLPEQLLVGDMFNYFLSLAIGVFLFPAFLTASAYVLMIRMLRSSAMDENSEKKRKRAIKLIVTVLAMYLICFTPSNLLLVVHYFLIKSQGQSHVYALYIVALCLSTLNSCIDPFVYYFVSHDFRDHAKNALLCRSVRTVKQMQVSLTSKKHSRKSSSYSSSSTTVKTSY

Square brackets hold non-standard residues; d marks the D form. Ends that are not written are not given here. Peptide text beside a SMILES is read from it. * marks the point of attachment. Arg(NO2) = N=C(NCCC[C@H](N)C(=O)O)N[N+](=O)[O-]; NHCH2CH2(piperidin-1-yl) = C1CCN(CCN*)CC1; Benzofuran(2-CO) = O=C(c1cc2ccccc2o1)*; Imidazole4carbonyl = O=C(c1cnc[nH]1)*; Isoxazole(3-carbonyl) = O=C(c1ccon1)*; Cha = N[C@@H](CC1CCCCC1)C(=O)O; Nicotinoyl = O=C(c1cccnc1)*; Picolinoyl = O=C(c1ccccn1)*; 2Furoyl = O=C(c1ccco1)*; X1 = Cc1cc(C(=O)*)oc1C; X2 = O=C(c1ccc(Br)o1)*; Bz = O=C(c1ccccc1)*

For the first assay, the target named is human PAR-2 (Protease-activated receptor-2) (human) (UniProt P55085). The assay can be described thus: cell-based or functional assay.
Details: not given
“2-furoyl-β-cyclohexyl-L-alanyl-glycyl-glycyl-β-cyclohexyl-L-alanine 2-(1-piperidinyl)ethyl amide (peptide)”: the Agonist activity (EC50, µM); intracellular calcium, HCT-15 cells is 16.5 µM.

With “picolinoyl-β-cyclohexyl-L-alanyl-glycyl-glycyl-β-cyclohexyl-L-alanine 2-(1-piperidinyl)ethyl amide (peptide)”, the Agonist activity (EC50, µM); intracellular calcium, HCT-15 cells is 7.6 µM.

On to “benzofuran-2-carbonyl-β-cyclohexyl-L-alanyl-glycyl-glycyl-β-cyclohexyl-L-alanine 2-(1-piperidinyl)ethyl amide (peptide)”, for which the Agonist activity (EC50, µM); intracellular calcium, HCT-15 cells was found to be 0.8 µM.

With “2-furoyl-L-phenylalanyl-glycyl-glycyl-β-cyclohexyl-L-alanine 2-(1-piperidinyl)ethyl amide (peptide)”, the Agonist activity (EC50, µM); intracellular calcium, HCT-15 cells amounted to 2.9 µM.

“5-bromo-2-furoyl-β-cyclohexyl-L-alanyl-glycyl-glycyl-β-cyclohexyl-L-alanine 2-(1-piperidinyl)ethyl amide (peptide)”: the Agonist activity (EC50, µM); intracellular calcium, HCT-15 cells was 0.7 µM.

With “nicotinoyl-β-cyclohexyl-L-alanyl-glycyl-glycyl-β-cyclohexyl-L-alanine 2-(1-piperidinyl)ethyl amide (peptide)”, the Agonist activity (EC50, µM); intracellular calcium, HCT-15 cells came to 1.6 µM.

In the case of “isoxazole-3-carbonyl-β-cyclohexyl-L-alanyl-glycyl-glycyl-β-cyclohexyl-L-alanine 2-(1-piperidinyl)ethyl amide (peptide)”, the Agonist activity (EC50, µM); intracellular calcium, HCT-15 cells came to 6.6 µM.

On to “imidazole-4-carbonyl-β-cyclohexyl-L-alanyl-glycyl-glycyl-β-cyclohexyl-L-alanine 2-(1-piperidinyl)ethyl amide (peptide)”, for which the Agonist activity (EC50, µM); intracellular calcium, HCT-15 cells came out at 14.9 µM.

In the case of “4,5-dimethyl-2-furoyl-β-cyclohexyl-L-alanyl-glycyl-glycyl-β-cyclohexyl-L-alanine 2-(1-piperidinyl)ethyl amide (peptide)”, the Agonist activity (EC50, µM); intracellular calcium, HCT-15 cells was found to be 16.5 µM.

For a further assay, the target named is T1, PAR-2. The assay can be described thus: Intracellular calcium dynamics assay (modified Hawthorne et al. method) in HCT-15 cells. The class given is cell-based. Also on record: endogenous in cells; host or cells: HCT-15 human colorectal adenocarcinoma cells.
Details: not given
An excerpt: The PAR-2 activation of peptide derivatives represented by the general formula (1) can be tested by known various methods. For example, PAR-2 activation of peptide derivates can be tested by the methods namely, “Hollenberg method” (Hollenberg, M. D., et al., Can. J. Physiol. Pharmacol., 75, 832-841 (1997)), “Kawabata et al. method” (Kawabata, A., et al., J. Pharmacol. Exp. Ther., 288, 358-370 (1999)), “Howthorne et al. method” (Howthorne et al., A High-Throughput Microtiter Plate-Based Calcium Assay for the Study of Protease-Activated Receptor 2 Activation, Analytical Biochemistry 290, 378-379 (2001)), and the like. The present inventors tested PAR-2 activation potency by the modified “Hawthorne et al. method”. More specifically the method is to assay intracellular calcium dynamic expressing human PAR-2 inherently. In this assay, under probenecid inhibiting anion-exchange transporter the inventors measured intracellular calcium dynamic mediated PAR-2 agonist(concentration variation) by a multiple-well plate reader wherein introducing Ca^2+ sensitive fluorescent dye and stimulating this cell by PAR-2 agonist.
This method is explained below in more detail.
Thereafter, the cells were stimulated with various concentration test compounds and measured at an excitation wavelength of 485 nm and at a measurement wavelength of 525 nm (cut-off 515 nm) with a fluorometer scanning a multiple well (Flex Station, Molecular Devices). As a comparative compound, SLIGKV-OH which is a known PAR-2 activated peptide was used.
Take `O=C(CNC(=O)[C@H](Cc1ccccc1)NC(=O)c1ccco1)NCC(=O)N[C@@H](CC1CCCCC1)C(=O)NCCN1CCCCC1` [Example 2, 2-furoyl-L-phenylalanyl-glycyl-glycyl-β-cyclohexyl-L-alanine 2-(1-piperidinyl)ethyl amide] (2Furoyl-FGG[Cha]-{NHCH2CH2(piperidin-1-yl)}): the EC50 worked out at 2.9 ± 0.6 µM.

For the molecule `O=C(CNC(=O)[C@H](CC1CCCCC1)NC(=O)c1ccc(Br)o1)NCC(=O)N[C@@H](CC1CCCCC1)C(=O)NCCN1CCCCC1` [Example 3, 5-bromo-2-furoyl-β-cyclohexyl-L-alanyl-glycyl-glycyl-β-cyclohexyl-L-alanine 2-(1-piperidinyl)ethyl amide] (X2-[Cha]GG[Cha]-{NHCH2CH2(piperidin-1-yl)}), the EC50 is 0.7 ± 0.2 µM.

For the molecule `O=C(CNC(=O)[C@H](CC1CCCCC1)NC(=O)c1ccccn1)NCC(=O)N[C@@H](CC1CCCCC1)C(=O)NCCN1CCCCC1` [Example 7, picolinoyl-β-cyclohexyl-L-alanyl-glycyl-glycyl-β-cyclohexyl-L-alanine 2-(1-piperidinyl)ethyl amide] (Picolinoyl-[Cha]GG[Cha]-{NHCH2CH2(piperidin-1-yl)}), the EC50 was 7.6 ± 2.6 µM.

`O=C(CNC(=O)[C@H](CC1CCCCC1)NC(=O)c1ccon1)NCC(=O)N[C@@H](CC1CCCCC1)C(=O)NCCN1CCCCC1` [Example 6, isoxazole-3-carbonyl-β-cyclohexyl-L-alanyl-glycyl-glycyl-β-cyclohexyl-L-alanine 2-(1-piperidinyl)ethyl amide] ({Isoxazole(3-carbonyl)}-[Cha]GG[Cha]-{NHCH2CH2(piperidin-1-yl)}): the EC50 was 6.6 ± 3.1 µM.

As for `O=C(CNC(=O)[C@H](CC1CCCCC1)NC(=O)c1cc2ccccc2o1)NCC(=O)N[C@@H](CC1CCCCC1)C(=O)NCCN1CCCCC1` [Example 5, benzofuran-2-carbonyl-β-cyclohexyl-L-alanyl-glycyl-glycyl-β-cyclohexyl-L-alanine 2-(1-piperidinyl)ethyl amide] ({Benzofuran(2-CO)}-[Cha]GG[Cha]-{NHCH2CH2(piperidin-1-yl)}), the EC50 is 0.8 ± 0.2 µM.

With `O=C(CNC(=O)[C@H](CC1CCCCC1)NC(=O)c1cccnc1)NCC(=O)N[C@@H](CC1CCCCC1)C(=O)NCCN1CCCCC1` [Example 4, nicotinoyl-β-cyclohexyl-L-alanyl-glycyl-glycyl-β-cyclohexyl-L-alanine 2-(1-piperidinyl)ethyl amide] (Nicotinoyl-[Cha]GG[Cha]-{NHCH2CH2(piperidin-1-yl)}), the EC50 stood at 1.6 ± 0.1 µM.

Take `O=C(CNC(=O)[C@H](CC1CCCCC1)NC(=O)c1ccco1)NCC(=O)N[C@@H](CC1CCCCC1)C(=O)NCCN1CCCCC1` [Example 1, 2-furoyl-β-cyclohexyl-L-alanyl-glycyl-glycyl-β-cyclohexyl-L-alanyine 2-(1-piperidinyl)ethyl amide] (2Furoyl-[Cha]GG[Cha]-{NHCH2CH2(piperidin-1-yl)}): the EC50 stood at 16.5 ± 3.4 µM.

Take `O=C(CNC(=O)[C@H](CC1CCCCC1)NC(=O)c1cnc[nH]1)NCC(=O)N[C@@H](CC1CCCCC1)C(=O)NCCN1CCCCC1` [Example 9, imidazole-4-carbonyl-β-cyclohexyl-L-alanyl-glycyl-glycyl-β-cyclohexyl-L-alanine 2-(1-piperidinyl)ethyl amide] (Imidazole4carbonyl-[Cha]GG[Cha]-{NHCH2CH2(piperidin-1-yl)}): the EC50 stood at 14.9 ± 1.3 µM.

Still in this assay, the particulars now being: HCT-15 cells, calcium assay; statement in words.
As to `Cc1cc(C(=O)N[C@@H](CC2CCCCC2)C(=O)NCC(=O)NCC(=O)N[C@@H](CC2CCCCC2)C(=O)NCCN2CCCCC2)oc1C` [Example 8, 4,5-dimethyl-2-furoyl-β-cyclohexyl-L-alanyl-glycyl-glycyl-β-cyclohexyl-L-alanine 2-(1-piperidinyl)ethyl amide] (X1-[Cha]GG[Cha]-{NHCH2CH2(piperidin-1-yl)}), the “agonist activation compared with the comparative peptide SLIGKV-OH” value is “almost same as the comparative peptide”.

As to `O=C(CNC(=O)[C@H](CC1CCCCC1)NC(=O)c1ccco1)NCC(=O)N[C@@H](CC1CCCCC1)C(=O)NCCN1CCCCC1` [Example 1, 2-furoyl-β-cyclohexyl-L-alanyl-glycyl-glycyl-β-cyclohexyl-L-alanyine 2-(1-piperidinyl)ethyl amide] (2Furoyl-[Cha]GG[Cha]-{NHCH2CH2(piperidin-1-yl)}), the “agonist activation compared with the comparative peptide SLIGKV-OH” value was “almost same as the comparative peptide”.

On to `O=C(CNC(=O)[C@H](CC1CCCCC1)NC(=O)c1cnc[nH]1)NCC(=O)N[C@@H](CC1CCCCC1)C(=O)NCCN1CCCCC1` [Example 9, imidazole-4-carbonyl-β-cyclohexyl-L-alanyl-glycyl-glycyl-β-cyclohexyl-L-alanine 2-(1-piperidinyl)ethyl amide] (Imidazole4carbonyl-[Cha]GG[Cha]-{NHCH2CH2(piperidin-1-yl)}), for which the “agonist activation compared with the comparative peptide SLIGKV-OH” value is on record as “almost same as the comparative peptide”.

Still in this assay, the particulars now being: HCT-15 human colorectal adenocarcinoma cells expressing PAR-2 inherently; Ca2+ sensitive fluorescent dye, 2.5 mM probenecid; read-out: Agonist activity (EC50).
In the case of `Cc1cc(C(=O)N[C@@H](CC2CCCCC2)C(=O)NCC(=O)NCC(=O)N[C@@H](CC2CCCCC2)C(=O)NCCN2CCCCC2)oc1C` [Example 8, 4,5-dimethyl-2-furoyl-β-cyclohexyl-L-alanyl-glycyl-glycyl-β-cyclohexyl-L-alanine 2-(1-piperidinyl)ethyl amide] (X1-[Cha]GG[Cha]-{NHCH2CH2(piperidin-1-yl)}), the EC50 was determined as 16.5 ± 2.1 µM.

Another assay addresses T1, PAR-2.
Test: not given
The note with it: relative to TRAP (tethered receptor agonist peptide); cited from earlier work.
On to `CC(C)C[C@H](NC(=O)[C@H](CCCNC(=N)N[N+](=O)[O-])NC(=O)c1ccccc1)C(N)=O` [N^60-benzoyl-Arg(NO2)-Leu-NH2] (Bz-[Arg(NO2)]-Leu-NH2), for which the “PAR-2 activation, action strength relative to TRAP” value is “about one of hundred action strength of TRAP”.

The target of a further assay is T2, human PAR-2 (Protease-activated …). As to the kind of experiment: cell-based or functional assay.
Details: not given
Regarding SLIGKV-OH [SLIGKV-OH (Ser-Leu-Ile-Gly-Lys-Val-OH)], the “Agonist activity (EC50, µM); intracellular calcium, HCT-15 cells” value is 15.6 µM.
